“Also recorded” adds a separate entry of the source.

Data set [1] has as its system mouse PRP (platelet rich plasma). The data set is described as follows: In vitro platelet aggregation assay (ADP, Aggregometer). In kind it is cell-based. The settings on record: for IC50: ADP, mouse PRP, read-out: IC50 platelet aggregation inhibition. The text has this:
Saxatilin derivatives and ADP were administrated to mouse PRP (platelet rich plasma) and measured aggregation level using Aggregometer (CHRONO-LOG, USA) to evaluate activity of the present saxatilin derivatives (Table 1).

Data set [2] has as its system FeCl3-induced carotid thrombus. The experiment in a line: Intravenous thrombolysis in FeCl3-induced carotid artery thrombosis model (carotid blood flow). The class given is in vivo, ICR mice.
Data set [3] relates to FeCl3-induced carotid thrombus. Described as above. In kind it is in vivo, ICR mice. Here is the method:
8-week-old male ICR (Institute of Cancer Research) mice (OrientBio) were used. The care and use of laboratory animals were performed according to institutionally approved protocol in accordance with the National Institutes of Health's Guide for the care and use of laboratory animals. For operative procedures, the animals were anesthetized with an inhalation of 5% isoflurane in a mixture of 70% N2O and 30% O2. Anesthesia was maintained with 2% isoflurane. During the operative procedures, body temperature was monitored continuously with a rectal probe and was maintained at 37.0±0.2° C. by means of a homeothermic blanket control unit and heating pad (Harvard Apparatus, Holliston, Mass.). To test the thrombolytic activity of r-saxatilin in vivo, FeCl3 (Sigma Aldrich, USA)-induced carotid thrombus model was utilized. A midline cervical incision was made, and the left common carotid artery was carefully dissected under a surgical microscope. An ultrasonic Doppler flow probe (Transonic MA0.7PSB) was placed around midportion of the common carotid artery (CCA). Carotid blood flow was obtained with a Transonic TS420 Blood Flow Meter (Transonic Instruments, Ithaca, N.Y.) and iWorx IX-304T data acquisition system (iWorx Systems, Inc., Dover, N.H.). The control baseline flow of the CCA was measured for 5 minutes. After the determination of the control baseline flow, the probe was removed. Oxidative vascular injury with chemical stress was induced by placing a filter paper (700×500 μm) saturated with 50% FeCl3 on the adventitial surface of the midpoint of the exposed CCA for 5 min. After removing the filter paper, the CCA was washed with normal saline and its blood flow was recorded. Thrombus formation and arterial occlusion were determined by decrease of blood flow and the complete occlusion was defined as absence of blood flow maintained for 10 minutes.
Ten minutes after occlusion of the CCA, r-saxatilin was administered intravenously via the left femoral vein by using an infusion pump (KD Scientific Inc., USA) connected to PE-10 tubing. The carotid blood flow was continuously monitored for 2 hours from the initial time of injection.
To evaluate dose response of r-saxatilin, the animals were randomly divided into seven groups (five mice in each group): normal saline (control group), 1, 1.75, 2.5, 3.75, 5.0, and 10.0 mg/kg of r-saxatilin administration groups. 10% of the dose was administered in bolus intravenously and the rest was infused continuously for 60 min.
Effects of r-saxatilin for thrombolysis were assessed according to administration method. For this experiment, a total dose of 5 mg/kg of r-saxatilin was used in each animal, and the animals were divided into four groups (five mice in each group): (a) bolus injection of total dose (5 mg/kg); (b) double bolus injection of r-saxatilin with a half dose (2.5 mg/kg) of r-saxatilin at 10 min after occlusion and 60 min after the first bolus injection; (c) a half dose bolus injection (2.5 mg/kg) at 10 min after occlusion, and then continuous infusion for 60 min of the remaining dose; and (d) bolus injection of 10% of the total dose (0.5 mg/kg) at 10 min after occlusion, and then continuous infusion of the remaining dose (4.5 mg/kg) for 60 min.
The presence and degree of recanalization were assessed by measuring blood flow. Data of blood flow at baseline and those monitored continuously for 2 hours after CCA occlusion were acquired by using iWorx Labscribe2 data acquisition software (version 2.045000). Immediately after 2 hours of blood flow monitoring, the CCA was obtained in all mice, fixed with 4% paraformaldehyde solution, and embedded in paraffin for histological examination. The paraffin blocks were consecutively sectioned in a transverse direction with 3 μm-thickness, mounted on a glass slide, and stained with hematoxylin and eosin.
The carotid blood flow was analyzed by the area under the flow-time curves. […]
This is another data set of the same source.

Data set [4] can be described thus: Mortality and bleeding after the r-saxatilin treatment. The class given is in vivo, ICR mice. The conditions noted are these: 5 mg/kg bolus injection group. The text has this:
Total 51 animals were used for evaluation of thrombolytic effects of r-saxatilin.

The mark [5] stands for this setting: total 5 mg/kg, bolus injection of total dose.

For orientation: IC50 means the concentration at which inhibition is half-maximal. Regarding “XL2: saxatilin derivative (deletion mutant), SEQ ID NO:7, expressed in Pichia (CKLRPGAQCAEGLCCDQCRFMKEGTICRMARGDDMDDYCNGISAGC; aritificially made peptide comprising Arg-Gly-Asp motif having thrombolytic activity)”, the IC50 in data set [1] worked out at 0.986 µM.

In the case of saxatilin, the “restored blood flow (area under flow-time curve)” value in data set [2] (20 mg/kg) is reported as 60.92±39.52%. In addition, the “restoration of blood flow and reocclusion” value in data set [2] (40 mg/kg) is “restored to normal blood flow and maintained without reocclusion”. Moreover, the IC50 in data set [1] came out at 0.176 µM. Besides, the “treatment concentration giving similar level of aggregation inhibition” value in data set [1] (FIG. 6) is on record as “approximately 0.7 μM”. For the same substance, in data set [3] (1 mg/kg), the “effective recanalization (blood flow >=50% of baseline maintained >30 min), mice” value is on record as “No effective recanalization”. Further, the “blood flow, area under flow-time curve, percent of mean control baseline blood flow” value worked out at 2.36±0.78% in data set [3] (1 mg/kg i.v., 10% bolus + 60 min infusion, 2 h monitoring); 4.97±3.94% in data set [3] (1.75 mg/kg i.v., 10% bolus + 60 min infusion); 32.50±33.70% in data set [3] (2.5 mg/kg i.v., 10% bolus + 60 min infusion). Also, the “effective recanalization, mice” value in data set [3] (1.75 mg/kg) is reported as “No effective recanalization”; in data set [3] (2.5 mg/kg) it was “two of five”; in data set [3] (3.75 mg/kg), “three of five”; in data set [3] (5 mg/kg, 10% bolus + infusion) it was “all mice”; in data set [3] (10 mg/kg) it was “all mice”. In addition, the “time to effective recanalization” value in data set [3] (2.5 mg/kg) came to 32.92 ± 23.52 min; in data set [3] (3.75 mg/kg), 21.75 ± 21.62 min; in data set [3] (5 mg/kg, bolus 10% of total dose + continuous infusion), 13.92 ± 6.02 min; in data set [3] (5 mg/kg, bolus injection of total dose) it was 2.86 ± 0.22 min; in data set [3] (5 mg/kg, double bolus injection), 13.44 ± 26.31 min; in data set [3] (5 mg/kg, half dose bolus and continuous infusion of other half) it was 19.48 ± 25.94 min. The “time to effective recanalization” value in data set [3] (10 mg/kg) was 19.46 ± 19.75 min. In addition, the “blood flow, area under flow-time curve, versus baseline and 5 mg/kg” value in data set [3] (10 mg/kg i.v., 10% bolus + 60 min infusion, listed as r-saxatilin) is reported as “no significant difference; also recorded: restored nearly to the baseline level”. In addition, in data set [3] (total 5 mg/kg, bolus 10% of total dose + continuous infusion of remaining dose), the reocclusion entry is recorded as “no reocclusion”. Also, the “mean percentage of blood flow compared to baseline blood flow” value in data set [3] (setting [5]) was 77.01±46.11%; in data set [3] (total 5 mg/kg, double bolus injection with a half dose (2.5 mg/kg each)), 85.23±29.95%; in data set [3] (total 5 mg/kg, half dose bolus then continuous infusion of remaining dose for 60 min), 80.72±30.13%. Further, the “time point of abrupt reocclusion” value in data set [3] (setting [5]) is on record as “about 100 min”; in data set [3] (total 5 mg/kg, double bolus injection, after the first injection), “about 50 min”; in data set [3] (total 5 mg/kg, half dose bolus and continuous infusion of other half) it was “about 110 min”. Further, the “bleeding in the cervical incision” value in data set [4] was “one animal suffered bleeding”. The mortality entry in data set [4] (about 90 min after bolus, total 51 animals) is on record as “one animal was died from bleeding”.

These data come from US9982021B2, “Composition for dissolving thrombi, and a pharmaceutical composition for treating stenotic or occlusive vascular diseases which comprises the same” (INDUSTRY-ACADEMIC COOPERATION FOUNDATION, YONSEI UNIVERSITY, priority 2010, dated 2018).
